Data on 5 compounds can be found in patent US9982234B2, “Culture medium composition for improving regenerative capacity of stem cells, and stem cell culturing method using same” (R BIO CO., LTD., priority 2013, dated 2018).

Common to all, as to type: cell-based, human
Experiment [1] deals with adipose mesenchymal stem cells. The experiment can be described thus: Size of stem cells (Luna automated cell counter). Particulars: for effect on the size of the cells: 4 days of culture, result in words; for size of stem cells: mean n=3. The procedure:
(§1) The adipose mesenchymal stem cells of three persons, obtained by subculture to passage 3 in Example 1, were seeded into each of the following media and cultured for 4 days. During 4 days of culture, the morphology of the cells was observed. In addition, the size, viability and CDPL (cell population doubling level) of the cells were measured and expressed as mean values.
(§2) While the adipose mesenchymal stem cells isolated in Example 1 was cultured in each of the media, the adipose mesenchymal stem cells were collected at different days of culture, and the viability, cell size and CPDL of the cells were measured. Also, telomerase activity was measured for the cells subcultured to passage 3. The Alnus japonica extract in medium 11 was prepared in the following manner.
The adipose mesenchymal stem cells isolated in Example 1 were seeded in each of the media, and then treated with trypsin at different days of culture. Next, the adipose mesenchymal stem cells were collected, and the size (μm) of the stem cells was measured using Luna™ automated cell counter (n=3).

The test system of experiment [2] is adipose mesenchymal stem cells. The experiment can be described thus: Morphology of stem cells under phase contrast microscope. As to conditions: 4 days of culture; result in words. How it is done: as §1
The morphology of the stem cells was observed under a phase contrast microscope and photographed (see FIG. 1).

In experiment [3] the test system is adipose mesenchymal stem cells. Put plainly: Viability of stem cells (Luna automated cell counter). Also on record: viability of stem cells: unit not given here. As to conditions: for effect on the viability of the cells: 4 days of culture, result in words; for viability of stem cells: mean n=3. How it is done:
as §1, §2
The viability of the stem cells was measured using Luna™ automated cell counter (n=3).

Experiment [4] deals with adipose mesenchymal stem cells. Put plainly: Telomerase activity of stem cells (Telo TAGGG Telomerase PCR ELISA kit). Also on record: telomerase activity (N = 3): unit not given here. As to conditions: for telomerase activity (N = 3): cells cultured to passage 3. How it is done:
as §2
Adipose mesenchymal stem cells isolated from persons in their 40s, 50s and 60s according to the method of Example 1 were cultured to passage 3 in each of the media shown in Table 4 above, and then the telomerase activity of the stem cells was measured using Telo TAGGG Telomerase PCR ELISA kit (Roche).
For orientation: ELISA stands for enzyme-linked immunosorbent assay.

Experiment [5] has as its system adipose mesenchymal stem cells. Put plainly: Cell population doubling level (CPDL) of stem cells. How it is done: as §1, §2
The cell population doubling level (CPDL) of the stem cells was calculated using the following equation: CPDL=[…], wherein Nfinal: the number of finally obtained cells; and Ninitial: the number of initially seeded cells.

[6] abbreviates: Day 1 post seeding, 20 nM in M9 medium.
Where [7] appears, read: Day 1 post seeding, 50 nM in M9 medium.
The mark [8] stands for this setting: Day 2 post seeding, 20 nM in M9 medium.
[9] abbreviates: Day 2 post seeding, 50 nM in M9 medium.
Setting [10] is: Day 3 post seeding, 20 nM in M9 medium.
The mark [11] stands for this setting: Day 3 post seeding, 50 nM in M9 medium.
Where [12] appears, read: Day 4 post seeding, 20 nM in M9 medium.
[13] abbreviates: Day 4 post seeding, 50 nM in M9 medium.

Consider `COC1=C(OC)C(=O)C(C/C=C(\C)CC/C=C(\C)CC/C=C(\C)CC/C=C(\C)CC/C=C(\C)CC/C=C(\C)CC/C=C(\C)CC/C=C(\C)CC/C=C(\C)CCC=C(C)C)=C(C)C1=O` [Coenzyme Q10, coenzyme Q-10], for which the “effect on the size of the cells” value in experiment [1] was “no significant effect on the size”. For the same compound, the “effect on the morphology of the cells” value in experiment [2] is given as “no significant effect on the morphology”. The “effect on the viability of the cells” value in experiment [3] is “no significant effect on the viability”. The “telomerase activity (N = 3)” value is 2.817 in experiment [4] (5 μM in M9 medium) and 1.964 in experiment [4] (10 μM in M9 medium).
Turning to `Cc1c(-c2cnccn2)ssc1=S` [Oltipraz, oltipraz], the figures for the “telomerase activity (N = 3)” value in experiment [4] (7 μM in M9 medium) and in experiment [4] (10 μM in M9 medium) were 1.968 and 2.137, respectively.
On to `CC(C)(C)c1cc(O)ccc1O` [TBH-Q, T-BHQ], for which the “telomerase activity (N = 3)” value was 2.524 in experiment [4] (5 μM in M9 medium) and 2.838 in experiment [4] (20 μM in M9 medium).
For the compound `Oc1ccc(C=Cc2cc(O)cc(O)c2)cc1` [Resveratrol], the “telomerase activity (N = 3)” value in experiment [4] (1 μM in M9 medium) stood at 2.042; in experiment [4] (2 μM in M9 medium), 1.654.
For apelin, the “effect on the size of the cells” value in experiment [1] is “no significant effect on the size”. The “size of stem cells” value is reported as 19.0 μm in experiment [1] (setting [6]); 18.6 μm in experiment [1] (setting [7]); 18.3 μm in experiment [1] (setting [8]); 15.6 μm in experiment [1] (setting [9]); 18.2 μm in experiment [1] (setting [10]); 18.0 μm in experiment [1] (setting [11]). The “size of stem cells” value was 18.5 μm in experiment [1] (setting [12]) and 17.9 μm in experiment [1] (setting [13]). In addition, the “cell population doubling level (CPDL)” value was found to be 0.00 in experiment [5] (Day 0 post seeding, 20 nM in M9 medium); 0.00 in experiment [5] (Day 0 post seeding, 50 nM in M9 medium); 0.89 in experiment [5] (setting [6]); 0.56 in experiment [5] (setting [7]); 2.84 in experiment [5] (setting [8]); 1.65 in experiment [5] (setting [9]). The “cell population doubling level (CPDL)” value in experiment [5] (setting [10]) is listed as 6.54; in experiment [5] (setting [11]) it was 5.11; in experiment [5] (setting [12]) it was 9.28; in experiment [5] (setting [13]), 8.20. The ability to proliferate entry in experiment [5] (cultured in medium containing the substance, result in words) was “proliferation ability efficiently increased”. In addition, the “effect on the morphology of the cells” value in experiment [2] was “no significant effect on the morphology”. In addition, the “effect on the viability of the cells” value in experiment [3] is “no significant effect on the viability”. Besides, the “viability of stem cells” value in experiment [3] (setting [6]) came to 97.2; in experiment [3] (setting [7]), 91.7; in experiment [3] (setting [8]) it was 98.9; in experiment [3] (setting [9]) it was 100; in experiment [3] (setting [10]), 98.8; in experiment [3] (setting [11]) it was 98.8. Besides, the “viability of stem cells” value in experiment [3] (setting [12]) stood at 99.4; in experiment [3] (setting [13]), 99.2. The “telomerase activity (N = 3)” value came to 2.838 in experiment [4] (5 nM in M9 medium) and 3.068 in experiment [4] (20 nM in M9 medium). The “telomerase activity compared between media” value in experiment [4] (20 nM, passage 3, result in words) was “highest telomerase activity”.
